According to patent US20240247021A1, “CRYSTAL FORMS OF KUDING SAPONIN A COMPOUND, PHARMACEUTICAL COMPOSITION AND USE THEREOF” (SHANGHAI KE PHARMACEUTICAL CO., LTD, priority 2021, published 2024):
One block for each compound: values may come before it.

Legend:
bronchial smooth muscle = test: Relaxation effect on bronchial smooth muscle (bronchial ring tension); design: species or system C57BL/6J mice; conditions: for Average percentage of tension relaxation: bronchial rings pre-constricted, 20 minutes after adding
Experimental: Firstly, Kudinoside A solutions with different concentrations were prepared: 0.3253 g of the crystal form A of the Kudinoside A obtained in Example 1 was dissolved in 1 mL of dimethyl sulfoxide (DMSO) to prepare a stock solution of the crystal form A of Kudinoside A, and then the stock solution was diluted in sequence with DMSO into solutions of the crystal form A of Kudinoside A at concentrations of 1 μM, 3.2 μM, 10 μM, and 32 μM.
Then, bronchial rings were prepared: C57BL/6J mice aged 6 weeks were killed by breaking the neck, left and right bronchi were taken out and subjected to bronchia dissection under a stereomicroscope, and the obtained left and right bronchi were cut into bronchial rings with a length of about 2 mm.
Furthermore, the tension of the bronchial ring was balanced: the bronchial ring was fixed with two metal wires and suspended in a water bath at 37° C. containing 5 mL of balanced salt solution (Kreb solution), and a mixed gas containing 5% of carbon dioxide and 95% of oxygen was continuously introduced; then the tension of the bronchial ring was balanced using a tension transducer and re-balanced after pre-stimulation with 60 mM potassium chloride.
Finally, determination of the airway tension and drug administration were performed: the instrument was calibrated, and the detection system was zeroed; a tension value A was recorded when the tension of the mouse was stable; 5 μL of 10 mM […] was added to 5 mL of Kreb solution to make the final concentration to be 10 μM, and 5 μL of each of the solutions of the crystal form A of Kudinoside A at different concentrations (1 μM, 3.2 μM, 10 μM, and 32 μM) was added separately when the constriction tension of the bronchial ring reached the peak; the change of the bronchial tension was observed and recorded, and the percentage of the airway tension relaxation was calculated, as shown in Table 22. The average tension value 1 minute before adding the solution of Kudinoside A is recorded as B, the average tension value 20 minutes after adding Kudinoside A is recorded as C, and the percentage of airway tension relaxation is (B−C)/(B−A).

[1] = test system: asthma mouse models with obvious pulmonary inflammation; test: Anti-inflammatory effect in asthma mouse models (eosinophilic granulocytes in alveolar lavage fluid, flow cytometry); assay type: in vivo, Balb/c mice; conditions: for Proportion of eosinophilic granulocytes (EOs): white blood cells of alveolar lavage fluid, day 39, negative control group 17.05
Experimental: Firstly, Kudinoside A solutions at different concentrations were prepared, and specific steps were as follows: • (1) Preparation of 15 mg/mL stock solution of the crystal form A of Kudinoside A: 0.50990 g of the crystal form A of Kudinoside A obtained in Example 1 was dissolved in 33.993 mL of propylene glycol under sonication to obtain about […] of 15 mg/mL stock solution of the crystal form A of Kudinoside A, which was stored at room temperature in the dark; • (2) Preparation of 1.5 mg/mL Kudinoside A solution: 2 mL of the 15 mg/mL stock solution of the crystal form A of Kudinoside A was measured out and diluted with 18 mL of 25% propylene glycol to obtain 20 mL of 1.5 mg/mL Kudinoside A solution, and the solution was freshly prepared before use. • (3) Preparation of 0.3 mg/mL Kudinoside A solution: 4 mL of the 1.5 mg/mL Kudinoside A solution was measured out and diluted with 16 mL of 32.5% propylene glycol to obtain 20 mL of 0.3 mg/mL Kudinoside A solution, and the solution was freshly prepared before use. • (4) Preparation of 0.06 mg/mL Kudinoside A solution: 3 mL of the 0.3 mg/mL Kudinoside A solution was measured out and diluted with 12 mL of 32.5% propylene glycol to obtain 15 mL of […] Kudinoside A solution, and the solution was freshly prepared before use.
Then, asthma mouse models with obvious pulmonary inflammation were constructed: 100 μL of 6 mg/mL chicken ovalbumin and 4 mg of aluminum hydroxide were injected intraperitoneally to Balb/c mice on day 1, 100 μL of 3.6 mg/mL chicken ovalbumin and 4 mg of aluminum hydroxide were injected on day 8, 100 μL of 1 mg/mL chicken ovalbumin and 4 mg of aluminum hydroxide were injected on day 15, and 6 mL of 2% chicken ovalbumin was administered by nebulization for exciting of 30 min every day from day 20 to day 23, thus constructing asthma mouse models with obvious pulmonary inflammation. For the mice in the blank control group, 100 μL of PBS was used instead of chicken ovalbumin.
Finally, the nebulization treatment was performed: from day 24, the Kudinoside A solutions at different concentrations (0.06 mg/mL, 0.3 mg/mL, and 1.5 mg/mL) were each administered by nebulization twice daily (30 min for each time, 12 mL in total) for treatment, and 6 mL of 2% chicken ovalbumin was administered by nebulization for exciting of 30 min 1 h after the nebulization treatment, and the administration and excitation were performed for 15 days according to this scheme; sampling was carried out 24 h after the last administration and excitation experiment, i.e., on day 39, and the Kudinoside A solution at the corresponding nebulization treatment concentration was administered twice (30 min for each time, 12 mL in total) for treatment before the sampling. The above was the scheme for the experimental groups of the nebulization treatment with Kudinoside A at different doses, and the mice in the negative control group were administered with 30% propylene glycol instead of Kudinoside A for nebulization.
Flow cytometry was adopted to detect proportion of eosinophilic granulocytes (EOs) in white blood cells of mouse alveolar lavage fluid samples. The blank group had 15 mice, the negative control group had 12 mice, and the high-, medium-, and low-concentration Kudinoside A experimental groups had 18 mice, 13 mice, and 14 mice, respectively.

[2] = Hygroscopicity test by dynamic vapor sorption (DVS); assay type: physicochemical; conditions: for weight change when the relative humidity is in the range of 0%-80% / hygroscopicity: DVS graph (FIGS. 1d, 2d, 3d); for hygroscopicity: judgment criteria of Table 7; for Increase in mass (relative humidity: 0%-80%) / Degree of hygroscopicity: DVS, 25° C., relative humidity 0%-80%; for Degree of hygroscopicity: criteria of Table 12
Experimental: Dynamic vapor sorption (DVS) is a test method for analyzing the moisture sorption performance of a sample and recording the moisture sorption isotherm, and it determines the stability of a compound by identifying its sorption capacity for moisture. Methods for performing dynamic vapor sorption analysis on the crystals are well known to those skilled in the art. In the present invention, the hygroscopicity of the crystal forms A, C, and J of Kudinoside A is determined by using a dynamic vapor sorption instrument, and the specific measurement conditions are shown in Table 7.
About 10 mg of each of the crystal forms A, C, and J obtained in Examples 1-3 was tested for its hygroscopicity using a dynamic vapor sorption (DVS) instrument (test conditions: a temperature of 25° C. and a relative humidity of 0%-80%), and the hygroscopicity of each crystal form was judged using the criteria shown in Table 12 below. For the steps and the judgment criteria of the hygroscopicity test, reference is made to the General Requirement 9103-Guidelines for Hygroscopicity in Pharmacopoeia of the People's Republic of China 2020 (Volume IV).

[3] = Thermogravimetric analysis (TGA); assay type: physicochemical; conditions: 10 K/min, nitrogen
Excerpt: Thermogravimetric analysis, or TGA for short, refers to a thermal analysis method for measuring the relationship of the mass of a sample to be detected with the change of temperature or time at a programmed temperature, and it is used to study information related to the quality of the sample, such as thermal stability, components of intermediate products possibly generated, etc. It is often used in combination with other thermal analysis methods for comprehensive thermal analysis. Methods for performing thermogravimetric analysis on the crystals are well known to those skilled in the art. In the present invention, the crystal forms A, C, and J of Kudinoside A are determined by using a thermogravimetric analyzer, and the specific measurement conditions are shown in Table 6.

[4] = Conditions under which the crystal forms exist stably; assay type: physicochemical
[5] = assay type: physicochemical; conditions: uncovered, in the dark, 10 days; long-term (25±2° C., RH 65%±10%) and accelerated (40±2° C., RH 75%±10%) conditions
Experimental: 25 mg of the crystal form J was spread in a culture dish and left to stand, with the culture dish uncovered, in the dark for 10 days under long-term conditions (temperature: 25±2° C.; relative humidity: 65%±10%) and acceleration conditions (temperature: 40±2° C.; relative humidity: 75%±10%), and then the crystal form J was subjected to X-ray powder diffraction assay and thermogravimetric analysis. The X-ray powder diffractometer used and parameters thereof are shown in Table 4; the thermogravimetric analyzer used and parameters thereof are shown in Table 6.

Compound: 3β-12α-19α-trihydroxy-ursane-13(18)-ene-28,20β-lactone-3-O-[β-D-glucosyl-(1→3)-[α-L-rham nosyl-(1→2)]-α-L-arabinoside [Kudinoside A]
relaxation effect on bronchial smooth muscle (bronchial smooth muscle; 1 μM): no relaxation effect | relaxation effect on bronchial smooth muscle (bronchial smooth muscle; 3.2 μM, 10 μM, and 32 μM): relaxed to a certain degree | Average percentage of tension relaxation (bronchial smooth muscle; Concentration of Kudinoside A 1 μM): −3.57% | Average percentage of tension relaxation (bronchial smooth muscle; Concentration of Kudinoside A 3.2 μM): 21.40% | Average percentage of tension relaxation (bronchial smooth muscle; Concentration of Kudinoside A 10 μM): 42.93% | Average percentage of tension relaxation (bronchial smooth muscle; Concentration of Kudinoside A 32 μM): 50.09% | Proportion of eosinophilic granulocytes (EOs) ([1]; 0.06 mg/mL solution by nebulization twice daily): 10.14 | Proportion of eosinophilic granulocytes (EOs) ([1]; 0.3 mg/mL solution by nebulization twice daily): 9.56 | Proportion of eosinophilic granulocytes (EOs) ([1]; 1.5 mg/mL solution by nebulization twice daily): 10.81 | anti-inflammatory effect (conclusion) ([1]; asthma mouse models): certain anti-inflammatory effects | proportion of eosinophilic granulocytes compared with the negative control group ([1]; each dose (0.06, 0.3, 1.5 mg/mL)): decreases

weight change when the relative humidity is in the range of 0%-80% [2]: about 1.8% | hygroscopicity [2]: slightly hygroscopic | Increase in mass (relative humidity: 0%-80%) [2]: 1.8% | Degree of hygroscopicity [2]: slightly hygroscopicity | decomposition temperature [3]: about 315 °C
Compound: C[C@@H]1O[C@@H](O[C@H]2[C@H](O[C@H]3CC[C@]4(C)[C@H]5C[C@H](O)C6=C7[C@]8(CC[C@](C)(OC8=O)[C@@]7(C)O)CC[C@@]6(C)[C@]5(C)CC[C@H]4C3(C)C)OC[C@H](O)[C@@H]2O[C@@H]2O[C@H](CO)[C@@H](O)[C@H](O)[C@H]2O)[C@H](O)[C@H](O)[C@H]1O [crystal form C, Kudinoside A]
Degree of hygroscopicity ([2]; listed as C): Slightly hygroscopic (The increase in mass is less than 2% but not less than 0.2%) | conditions under which the crystal form exists stably [4]: can exist stably as a dry powder at room temperature

weight change when the relative humidity is in the range of 0%-80% [2]: about 4.7% | hygroscopicity [2]: hygroscopic | Increase in mass (relative humidity: 0%-80%) [2]: 4.7% | Degree of hygroscopicity [2]: hygroscopic | decomposition temperature [3]: about 324 °C | characteristic peaks on the X-ray powder diffraction pattern (crystal form change) [5]: not changed | weight loss condition (TGA) [5]: not changed
Compound: C[C@@H]1O[C@@H](O[C@H]2[C@H](O[C@H]3CC[C@]4(C)[C@H]5C[C@H](O)C6=C7[C@]8(CC[C@](C)(OC8=O)[C@@]7(C)O)CC[C@@]6(C)[C@]5(C)CC[C@H]4C3(C)C)OC[C@H](O)[C@@H]2O[C@@H]2O[C@H](CO)[C@@H](O)[C@H](O)[C@H]2O)[C@H](O)[C@H](O)[C@H]1O [crystal form J, Kudinoside A]
Degree of hygroscopicity ([2]; listed as J): Hygroscopic (The increase in mass is less than 15% but not less than 2%) | conditions under which the crystal form exists stably [4]: can exist stably as a dry powder at room temperature
